Test results from patent publication US7807396B2, “Insulin degrading enzyme assays for treatment of alzheimer's disease” (University of Kentucky Research Foundation, priority 2000, dated 2010).

Legend:
neprilysin mRNA = experiment: In situ hybridization of neprilysin mRNA in hippocampus of ovariectomized rats; type: in vivo, rat; conditions: 17β-estradiol pellets, 3 weeks
Description: Using in situ hybridization we administered antisense probes for each of exons 1, 2, 3, and 4 (R1, R2, R3 and R4, respectively) to the brains of ovariectomized rats, some of which also received estrogen replacement therapy. Adult female Sprague-Dawley rats (approximate weight 300 grams) were used to study the effects of ovariectomy and estradiol supplementation on neprilysin expression levels and activity. In situ hybridization was used to measure neprilysin mRNA levels while a coupled chromogenic assay [Li, C. and Hersh, L. B. Neprilysin: Assay Methods, Purification and Characterization. Methods in Enzymology. 248, 253-263 (1995)] was used to measure neprilysin activity. […]
Images on autoradiographic film were analyzed with computer-aided densitometry (MCID-M1, Imaging Research, St. Catharines, Ontario, Canada). Optical density values of the [^14C] microscales were obtained and a correlating log-log linear least-squares fit was calculated (r^2>0.99). […] The optical density of each defined region was determined for the neuronal somal layer of area CA1 (stratum pyramidale), CA3 and dentate gyrus (stratum granulosum). Identification of brain regions was determined using the atlas of Paxinos and Watson (G. Paxinos, C. Watson, The rat Brain in Stereotaxic Coordinates, second Edition, Academic Press, Australia, 1986).

neprilysin = experiment: Neprilysin enzyme activity in rat brain tissue lysates, two-step assay; type: in vivo; conditions: 17β-estradiol pellets, 3 weeks
Method: Adult female Sprague-Dawley rats (approximate weight 300 grams) were used to study the effects of ovariectomy and estradiol supplementation on neprilysin expression levels and activity. […] Ovariectomy was performed at 13 weeks of age and sham-surgery was performed on littermate animals to provide a control group. For estrogen replacement groups, ovariectomized animals were implanted with 17β-estradiol pellets (Innovative Research of America, Sarasota, Fla., USA). Rats were killed 3 weeks later after implantation. The brains were rapidly removed, quickly frozen over dry ice, and stored at −80° C. until father processing. […] The brains were used either for in situ hybridization or for neprilysin activity measurements as noted above.
In this assay glutaryl-Ala-Phe-4-methoxy-2-naphthylamide is cleaved to glutaryl-Ala-Ala and Phe-4-methoxy-2-naphthylamide. An aminopetidase is then used to cleave the Phe-4-methoxy-2-naphthylamide releasing fluorescent 4-methoxy-2-naphthylamine which is quantified on a spectrofluorometer.
The tissue lysates were evaluated for neprilysin enzymatic activity using a two-step chromogenic assay. […] The 4-methoxy-2-naphthylamine was quantified spectrofluorimetrically at an excitation wavelength of 340 nm and an emission wavelength of 425 nm. […]

[1] = test system: primary rat cortical neurons; experiment: Neuroprotection / neurotoxicity assay in primary rat cortical neurons; type: cell-based
Method: Neurotoxicity assays were performed as described by Estus et. al. (Estus et al. (1997) J Neurosci 17:7736-7745) using embryonic day 18 rat fetuses to establish primary rat cortical neuron cultures. Rat brain cortical cells were initially cultured in AM0 media for 3-5 hrs in 16 well chamber slides (Nalge Nunc International, Rochester, N.Y.) pre-coated with polyethyleneimine at a density of ˜1×10^5 cells per well. The culture was enriched in neurons by replacement of the AM0 media with Dulbecco's modified Eagle's medium (DMEM, Life Technologies, Rockville, Md.) containing 100 units/ml penicillin, 100 μg/ml streptomycin and 2% B27 serum supplement (Life Technologies, Rockville, Md.).
Cells were treated with Aβ peptides and then fixed with 4% paraformaldehyde for 15 min. at room temperature. After washing the cells with PBS they were then stained with Hoechst 33258 at 1 μg/ml for 10 minutes. Neurons were then visualized by fluorescence microscopy. Those cells with uniformly dispersed chromatin were scored as survivors, while those cells containing condensed chromatin were scored as non-survivors. Readings were typically taken in triplicate with a minimum of 250 neurons scored from each well. Cells treated as described above were visualized using a Nikon microscope equipped with a Hoffman modulation contrast lens. Statistical analysis was performed on the samples using ANOVA.
To test this, rat cortical neurons were treated with Aβ peptides in the presence and absence of insulysin. Preliminary experiments were performed to obtain a suitable Aβ peptide concentration that would show a significant cytotoxic effect, as there are batch to batch variations in the ability of the Aβ peptides to mediate cytotoxic effects on cells in culture.
The cell based assay using primary rat cortical neurons was used to determine whether the insulysin cleavage products of the Aβ peptides were themselves neurotoxic. Recombinant insulysin at concentrations ranging from 0.5 to 5000 ng was added simultaneously with the Aβ peptides to the cortical cultures.

insulysin = molecular target: T1, insulysin (Rattus norvegicus, UniProt P35559); experiment: Insulysin activity with fluorogenic peptide Abz-[…]-EDDnp; type: biochemical; conditions: increasing concentrations of the peptide
T1 construct: His6 (N); made in house; host or cells: Sf9 cells, baculovirus (pFASTBAC)
T1 sequence (P35559 whole entry): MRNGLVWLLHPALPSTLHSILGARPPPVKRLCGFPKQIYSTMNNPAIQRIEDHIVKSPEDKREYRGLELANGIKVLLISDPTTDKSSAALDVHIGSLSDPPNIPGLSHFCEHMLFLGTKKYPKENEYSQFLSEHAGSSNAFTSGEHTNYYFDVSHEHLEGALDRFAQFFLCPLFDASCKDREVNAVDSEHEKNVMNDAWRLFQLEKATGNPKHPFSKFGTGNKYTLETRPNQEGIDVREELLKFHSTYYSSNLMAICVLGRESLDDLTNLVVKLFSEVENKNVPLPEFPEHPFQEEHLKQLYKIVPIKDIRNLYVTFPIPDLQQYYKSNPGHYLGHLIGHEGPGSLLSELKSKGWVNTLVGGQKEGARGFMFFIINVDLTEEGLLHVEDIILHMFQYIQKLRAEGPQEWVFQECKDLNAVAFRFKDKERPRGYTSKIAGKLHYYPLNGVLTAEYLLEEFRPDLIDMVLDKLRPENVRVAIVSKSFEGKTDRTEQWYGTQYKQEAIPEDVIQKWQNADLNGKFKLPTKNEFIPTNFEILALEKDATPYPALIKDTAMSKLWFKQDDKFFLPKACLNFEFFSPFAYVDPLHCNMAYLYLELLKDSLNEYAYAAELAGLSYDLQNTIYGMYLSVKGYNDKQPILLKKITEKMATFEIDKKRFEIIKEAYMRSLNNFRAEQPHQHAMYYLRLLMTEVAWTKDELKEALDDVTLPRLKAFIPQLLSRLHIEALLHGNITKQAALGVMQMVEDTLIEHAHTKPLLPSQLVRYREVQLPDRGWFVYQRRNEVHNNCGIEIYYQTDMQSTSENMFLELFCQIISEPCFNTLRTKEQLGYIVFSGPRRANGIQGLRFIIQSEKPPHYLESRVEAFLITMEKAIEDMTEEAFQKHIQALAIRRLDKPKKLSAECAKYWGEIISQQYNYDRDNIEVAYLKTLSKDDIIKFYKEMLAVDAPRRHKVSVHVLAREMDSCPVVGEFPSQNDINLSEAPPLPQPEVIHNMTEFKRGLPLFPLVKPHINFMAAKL
Method: Referring to FIG. 16, the effect of increasing the concentration of the peptide dynorphin B-9 on insulysin activity is shown. Insulysin activity was measured with the fluorogenic peptide Abz-[…]-EDDnp (SEQ ID No: 14) in the presence of increasing concentrations of the peptide. This peptide contains the fluorescent […] (Abz) which is internally quenched by the 2,4-dinitrophenyl moiety.
Referring to FIG. 17, the effect of increasing the concentration of several different peptides on insulysin activity is summarized. Insulysin activity was measured with the fluorogenic peptide Abz-[…]-EDDnp (SEQ ID NO: 14) in the presence of increasing concentrations of the peptide.

Aβ1-40 [2] = molecular target: T2, Aβ1-40 (Homo sapiens, UniProt P05067); experiment: Rate of cleavage of Aβ1-40 by insulysin; type: biochemical; set-up: purchased Bachem (Torrance, Calif.); conditions: 25 μM Aβ1-40
Method: Purified insulysin was incubated with 25 μM Aβ1-40 in 40 mM potassium phosphate buffer, pH 7.2, at 37° C. for 1 hour. The reaction products were loaded onto a C4 reverse phase HPLC column and products resolved using a linear gradient of 5 to 75% acetonitrile over 65 minutes. Products were detected by absorbance at 214 nm using a Waters 484 detector and individual product peaks were collected manually. Product analysis was also conducted on an intact reaction mixture in which products were not resolved by HPLC. Products were identified by matrix assisted laser desorption ionization time of flight mass spectrometry (MALDI-TOF-MS). The reaction of insulysin with Aβ1-42 was conducted in a similar manner with products identified by MALDI-TOF-MS directly from reaction mixtures.
Product peaks corresponding to cleavage at the His^13-His^14, His^14-Gln^15, Phe^19-Phe^20 and Phe^20-Ala^21 positions were observed.

pre-aggregated Aβ1-40 = molecular target: T3, pre-aggregated Aβ1-40 (Homo sapiens, UniProt P05067); experiment: Degradation of pre-aggregated 125I-Aβ1-40 deposited onto synthetic amyloid; type: biochemical; conditions: 24 hr incubation with 5 μg of insulysin
T3 construct: purchased Amersham (125I-Aβ); QCB/BioSource (synthaloid plates)
Description: During the progression of Alzheimer's disease monomeric Aβ peptides are deposited onto senile plaques. To test whether insulysin is able to prevent the deposition of the Aβ1-40 peptide, a model system was used in which the deposition of radiolabeled Aβ1-40 onto a synthetic amyloid plaque (synthaloid) is followed (Esler et al. (1999) Methods Enzymol 309:350-74). […] We also conducted an experiment in which ^125I-Aβ1-40 was first deposited onto the synthetic amyloid and then treated with insulysin to see if the enzyme could degrade pre-aggregated Aβ1-40.

β-endorphin = molecular target: T4, β-endorphin (Homo sapiens, UniProt P01189); experiment: Insulysin activity determination, disappearance of β-endorphin by HPLC; type: biochemical; conditions: 30 μM β-endorphin, 37° C.
T4 construct: Human β-endorphin1-31; purchased National Institute on Drug Abuse drug supply system
T4 sequence (P01189 237-267): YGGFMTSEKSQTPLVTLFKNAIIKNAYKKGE
Method: Materials. […] Solutions were prepared by dissolving the peptide in dimethylsulfoxide (DMSO) to give a stock concentration of 200 μM. The peptide stock was lyophilized and stored at −80° C. until use. The aggregation state of Aβ peptide stock solutions was checked by electron microscopy (Ray et al. (2000) Brain Res 853:344-351) and found to be predominantly, if not exclusively, monomeric. For the in vitro reactions with insulysin, a final concentration of 25 μM Aβ1-40 was obtained after bringing the lyophilized peptide into solution with double distilled water. […] Human β-endorphin1-31, obtained from the National Institute on Drug Abuse drug supply system, was dissolved in water to give a stock solution of 300 μM. Trifluoroacetic acid (Sigma Biochemicals, St. Louis, Mo.) was diluted into water to produce a 5% working solution.
Insulysin activity was assayed by measuring the disappearance of β-endorphin by isocratic reverse phase HPLC (Safavi et al. (1996) Biochemistry 1996 35:14318-14325). A 100 μl reaction mixture containing 40 mM potassium phosphate buffer, pH 7.2, 30 μM β-endorphin, and enzyme was incubated for 15 minutes at 37° C. […] The β-endorphin peak was detected by absorbance at 214 nm using a Waters 484 detector. The reaction was quantitated by measuring the decrease in the β-endorphin peak area.

[3] = test system: rat brain hippocampal neurons; experiment: Hippocampal cell survival with Aβ1-42 with or without insulysin; type: cell-based
Description: In order to determine whether the insulysin cleavage of Aβ peptides produces products which in themselves are neurotoxic, we conducted experiments using cultured primary hippocampal cells. […] An inactivated form of insulysin was used as a control.
Viable cells were detected by microscopy.
Neuronal survival was estimated as a function of time.

Aβ1-40 [4] = molecular target: T2, Aβ1-40; experiment: Aβ1-40 deposition assay onto synthetic amyloid (synthaloid); type: biochemical; set-up: purchased Amersham (125I-Aβ); QCB/BioSource (synthaloid plates)
Method: A protocol was used where amyloid beta 1-40 (Aβ1-40) is initially deposited onto a 96 well microtiter plate. Radioactive (^125I labeled) Aβ1-40 is then added to the wells of this plate where it further adds to the Aβ1-40 deposited. This mimics the deposition of Aβ1-40 seen in the brains of Alzheimer patients.
96 well plates were pre-coated with Aβ1-40. In the control, 100 pM of ^125I-Aβ1-40 was deposited onto the pre-deposited Aβ1-40 plaque for three hours (lane 1). insulysin was added at concentrations of 500 ng, 50 ng and 5 ng to the wells along with ^125I-Aβ1-40 for three hours (lanes 2 to 4).
Beta amyloid deposition assays were conducted as described by Esler et. al. (Esler et al. (1997) Nat Biotech 15:268-263). Briefly, 96 well microtiter plates pre-coated with aggregated amyloid β1-40 (QCB/Biosource, Hopkinton, Mass.) were additionally coated with 200 μl of a 0.1% bovine serum albumin solution in 50 mM Tris-HCl, pH 7.5 for 20 minutes to prevent non-specific binding. For measuring Aβ1-40 deposition in the presence or absence of insulysin, a 150 μl solution of 0.1 nM 125I labeled Aβ1-40 in 50 mM Tris-HCl, pH 7.5 was added to the pre-coated well and incubated for four hours. When added, insulysin (0.5 to 500 ng) was placed directly in the well at zero time. The reaction was stopped by washing off excess undeposited radiolabeled Aβ1-40 with 50 mM Tris-HCl, pH 7.5. The radiolabel deposited onto the washed well was counted in a gamma counter. In a variation of this protocol, insulysin was preincubated with ^125 I-Aβ1-40 for 60 minutes and then added to the deposition assay.
During the progression of Alzheimer's disease monomeric Aβ peptides are deposited onto senile plaques. To test whether insulysin is able to prevent the deposition of the Aβ1-40 peptide, a model system was used in which the deposition of radiolabeled Aβ1-40 onto a synthetic amyloid plaque (synthaloid) is followed (Esler et al. (1999) Methods Enzymol 309:350-74). […]

C[C@]12CC[C@@H]3c4ccc(O)cc4CC[C@H]3[C@@H]1CC[C@@H]2O [estrogen, 17β-estradiol] was tested, and the “expression of neprilysin mRNA in the hippocampus, higher than ovariectomized rats without estrogen” value (neprilysin mRNA) was “about 300%” and the “increase in neprilysin activity in the hippocampus over ovariectomized rats not treated with estrogen” value (neprilysin) was ~30%.

For “Aβ1-40: amyloid beta peptide 1-40 (SEQ ID NO: 12) obtained from Bachem [reference compound]”, the “loss of cortical neurons” value ([1]; 30 μM Aβ1-40, 48 hrs) was “approximately 70%”.

In the case of “beta endorphin: peptide, insulysin substrate, found to increase insulysin enzymatic activity”, the “effect on insulysin activity” value (insulysin) is reported as “increase insulysin enzymatic activity”.

For dynorphin, the “effect on insulysin activity” value (insulysin) was “increase insulysin enzymatic activity”.

With “insulysin: His6-tagged recombinant rat insulysin (insulin degrading enzyme) expressed in Sf9 cells with baculovirus, purified” the “rate of cleavage of Aβ1-40” value (Aβ1-40 [2]) was 1.2 μmols/min/mg enzyme, the “amount effective in sparing the neurotoxic effects of Aβ1-42” value ([1]; 25 μM Aβ1-42, added simultaneously, 48 hrs) was 500 ng and the “amount effective in sparing the neurotoxic effects of Aβ1-40” value ([1]; 30 μM Aβ1-40, added simultaneously, 48 hrs) was 50 ng. For the same molecule, the “release of radioactivity from deposited 125I-Aβ1-40” value (pre-aggregated Aβ1-40) was “no radioactivity was released”, the specific activity (β-endorphin) was 2.6 μmols/min/mg and the “Aβ1-42 induced cell death of hippocampal cells” value ([3]; 10 μM Aβ1-42 (initially monomeric), 400 ng insulin degrading enzyme, 24 hrs) was “prevented Aβ1-42 induced cell death”. For the same molecule, the neuronal survival ([3]; insulysin added with 25 μM Aβ1-42, up to 12 hours) was “survival was close to that seen in the control untreated cells”, the “inhibition of deposition of 125I-Aβ1-40” value (Aβ1-40 [4]; 50 ng of insulysin, 100 pM 125I-Aβ1-40, three hours) was 50% and the “amount able to prevent the deposition of radiolabeled Aβ1-40” value (Aβ1-40 [4]; insulysin added with 125I-Aβ1-40 (0.1 nM), 4 hr) was 50 ng. For the same molecule, the “amount able to prevent the deposition of radiolabeled Aβ1-40” value (Aβ1-40 [4]; insulysin preincubated with 125I-Aβ1-40 for 60 minutes, 4 hr deposition) was 50 ng.
